Laboratory results from patent US6943007B2, “Immuno-stimulating polysaccharide substance from Phellinus spp. strain and use thereof” (Korea Institute of Science and Technology, priority 1998, dated 2005).

Tests used:
[1] = test system: B16F10 cutaneous cancer cells; experiment: Viability of mice implanted peritoneally with B16F10 cells, immunochemotherapy co-administration (60 days); type: in vivo, mouse; settings: for body weight during the test: all test groups, alone or in combination, 60-day test; for Proportion (%): untreated = 100
Text: (§1) A homogeneous plantation test system of B16F10 cutaneous cancer cell was utilized for the measurement of the anticancer activity upon co-administration of the polysaccharide substance and adriamycin. The cutaneous cancer cells were implanted in the peritoneal cavity of mice. Adriamycin was peritoneally administrated to the mice for 12 days after tumor implantation while the polysaccharide substance was peritoneally administrated from a week before the implantation to 12 days after the implantation. For 60 days, the viability of the mice was recorded everyday. Adriamycin was used at such low amounts as not to damage the mice.
The cutaneous cancer cells were implanted in the peritoneal cavity of mice. […] For 60 days, the viability of the mice was recorded everyday.
The cutaneous cancer cells were implanted in the peritoneal cavity of mice. […] For 60 days, the viability of the mice was recorded everyday. Cisplastin was used at such low amounts as not to damage the mice.
as §1, with “5-fluoro uracil, as in the above experiments.” for “adriamycin.”, “5-fluoro uracil” for “Adriamycin”

[2] = test system: NCl-H23 lung cancer cells; experiment: Human cancer cells implanted subcutaneously in nude mice; type: in vivo
Protocol: The activity of the polysaccharide substance against human cancer was assayed using NCl-H23, a lung cancer cell line. Nude mice were subcutaneously implanted with NCl-H23 lung cancer cells. The polysaccharide substance and adriamycin were peritoneally administrated to the nude mice for 12 days after cancer cell implantation. The size of a mass of the cancer cells was measured and the cancer cells were separated and weighed on the 19th day after cancer cell implantation. Because the nude mice were devoid of T-cells, their immunological competency was generally attributed to the activity of natural killer cells or macrophage cells. Therefore, the immunological enhancement obtained when administrating the polysaccharide substance was meditated through these two type cells.

[3] = test system: B16F10 cutaneous cancer cells; experiment: Lung metastasis of B16F10 cells implanted in tail veins; type: in vivo, C57BL/6 mice; settings: 14th day
Text: In order to test the polysaccharide substance for the prevention of cancer metastasis, B16F10 cutaneous cancer cells were implanted in the tail veins of C57BL/6 mice. On the 14th day after implantation, the lungs were isolated from the mice to investigate whether or to what extent cancer metastasis occurred. Adriamycin was peritoneally administrated to the mice for 12 days after tumor implantation while the polysaccharide substance was peritoneally administrated from a week before the implantation to 12 days after the implantation.

[4] = test system: B16F10 mouse cutaneous cancer cells; experiment: Direct cytotoxicity, sulforhodamin B method; type: cell-based; settings: 2nd day after treatment
[5] = test system: NCl-H23 human lung cancer cells; experiment: Direct cytotoxicity, sulforhodamin B method; type: cell-based; settings: 2nd day after treatment
B-cells = experiment: B-cell antibody-forming cell method; type: cell-based, mice; settings: 10 μg/mL
Text: A better understanding of the present invention may be obtained through the following examples which are set forth to illustrate, but are not to be construed as the limit of the present invention. In the following examples, splenocytes taken from B6C3F mice were used for the measurement of the immuno-stimulating activity of the polysaccharide substances isolated from Phellinus linteus Yoo and other Phellinus spp. First, the splenocytes were immunized for 2 days by treatment with the substances and lipopolysaccharide as a positive control. The antibodies formed were measured by a spectrophotometer and considered as a standard for the immuno-stimulating activity. The effect of the polysaccharide substance on the proliferation of T-cells was measured by a mixed lymphocyte response technique. To detect the proliferation of lymphocytes, nuclear DNA which was newly synthesized in lymphocytes was measured by using ^3H-thymidine. In this example, B-cells were counted by use of an antibody-forming cell method and the proliferation of T-cells was measured by a mixed lymphocyte response technique. In addition, in order to detect the effect of the polysaccharide substance on the proliferation of lymphocytes, the nuclear DNA which was newly synthesized was measured by using ^3H-thymidine.

Molecule: COc1cccc2c1C(=O)c1c(O)c3c(c(O)c1C2=O)C[C@@](O)(C(=O)CO)C[C@@H]3O[C@H]1C[C@H](N)[C@H](O)[C@H](C)O1 [Adriamycin, adriamycin]
- Nos. of viable mice on the 60th day ([1]; Am 0.1 mg/kg): 0/10
- Nos. of viable mice on the 60th day ([1]; Am 0.3 mg/kg): 2/10
- body weight during the test [1]: did not lose body weight
- Cell size ([2]; 14th day, Am 1 mg/kg peritoneally for 12 days after implantation): Am^2 (1 mg/kg) 12 mm^3
- Final Cancer Weight ([2]; 19th day after implantation, Adriamycin 1 mg/kg): 95
- body weight of tested mice ([2]; nude mice, all test groups): did not gain or lose body weight
- Nos. of Spots (cancer spots on the lungs) ([3]; Adriamycin 1 mg/kg peritoneally for 12 days): 197
- Nos. of Spots (cancer spots on the lungs) ([3]; Adriamycin 3 mg/kg): 172
- cell quantity (untreated = 100%) ([4]; 1 μg/mL): 29%
- cell quantity (untreated = 100%) ([4]; 3 μg/mL): 9%
- cell quantity (untreated = 100%) ([4]; 10 μg/ml): −10%
- cell quantity (untreated = 100%) ([4]; 30 μg/mL): −10%
- cell quantity (untreated = 100%) ([5]; 1 μg/mL): 71%
- cell quantity (untreated = 100%) ([5]; 3 μg/mL): 39%
- cell quantity (untreated = 100%) ([5]; 10 μg/ml): 7%
- cell quantity (untreated = 100%) ([5]; 30 μg/mL): −1%

Molecule: O=c1[nH]cc(F)c(=O)[nH]1 [5-FU, 5-fluoro uracil]
- Nos. of viable mice on the 60th day ([1]; 5-FU 1 mg/kg): 0/10
- Avg. Viability ([1]; 5-FU 1 mg/kg peritoneally for 12 days after implantation): 33.0 days
- Nos. of viable mice on the 60th day ([1]; 5-FU 3 mg/kg): 2/10
- body weight during the test [1]: did not lose body weight

Molecule: lipopolysaccharide [LPS]
- B-Cell Antibody-forming (B-cells): 0.81 ± 0.23 Abs 576 nm

Molecule: N.N.[Cl][Pt][Cl] [C.P, Cisplatin]
- Nos. of viable mice on the 60th day ([1]; C.P 0.5 mg/kg): 0/10
- Avg. Viability ([1]; C.P 0.5 mg/kg peritoneally for 12 days after implantation): 33.0 days
- Avg. Viability ([1]; C.P 0.5 mg/kg peritoneally for 12 days after implantation, listed as Cisplatin): 33 days
- Nos. of viable mice on the 60th day ([1]; C.P 1.5 mg/kg): 2/10

Molecule: CO[C@@]12[C@H](COC(N)=O)C3=C(C(=O)C(C)=C(N)C3=O)N1C[C@@H]1N[C@@H]12 [M.C, Mitomycin C]
- Nos. of viable mice on the 60th day ([1]; M.C 0.2 mg/kg): 0/10
- Avg. Viability ([1]; M.C 0.2 mg/kg peritoneally for 12 days after implantation): 32.5 days
- Proportion (%) ([1]; M.C 0.2 mg/kg): 179.6%
- Avg. Viability ([1]; M.C 0.6 mg/kg): 38.0 days
- Nos. of viable mice on the 60th day ([1]; M.C 0.6 mg/kg): 1/10
- Proportion (%) ([1]; M.C 0.6 mg/kg): 209.9%
